Results taken from patent publication US20190053492A1, “SUBSTITUTED PYRIDINE COMPOUNDS AS PESTICIDES” (Bayer CropScience Aktiengesellschaft, priority 2016, published 2019).
Where two headings read alike, the source gives them in different places.

What was measured:
[1] = log P by HPLC on reversed-phase column (C 18), EEC Directive 79/831 Annex V.A8; type: physicochemical; conditions: 55° C.; for LOGP_HCOOH: log P (HCOOH); for chromatographic logP: reversed-phase HPLC column (C 18)
Protocol: Temperature: 55° C. […] Called log P (HCOOH) in the table. […] Called log P (neutral) in the table.

Phaedon cochleariae = Phaedon cochleariae spray test; type: in vivo; conditions: after 7 days, Chinese cabbage leaf discs
Outline: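 Chinese cabbage leaf discs sprayed with compound in acetone/DMF and emulsifier-containing water, then infested with mustard beetle larvae once dry. Efficacy in % scored after 7 days (100% = all larvae killed, 0% = none).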

Spodoptera frugiperda = Spodoptera frugiperda spray test; type: in vivo; conditions: after 7 days, maize leaf discs; for pest or weed control at 500 g/ha: Spodoptera frugiperda, foliar, 168 h, read-out: efficacy (caterpillars killed)
Outline: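 Maize leaf discs were sprayed with compound formulated in acetone/DMF and emulsifier-containing water, dried, then infested with Spodoptera frugiperda caterpillars. Percent kill was scored after 7 days, from 100% (all dead) to 0% (none dead).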

[2] = acidic range pH 2.7, 0.1% aqueous formic acid and acetonitrile, reversed-phase column (C 18)
[3] = log P, neutral range, HPLC on reversed-phase column (C 18)
[4] = acidic range at pH 2.7, 0.1% aqueous formic acid and acetonitrile, HPLC on reversed-phase column (C 18)
[5] = log P (neutral), HPLC reversed-phase column (C 18)
[6] = pH 2.7, LC-MS acidic range, pH 2.7, 0.1% formic acid/acetonitrile, read-out: log P (acidic) / log P (HCOOH)
[7] = pH 7.8, LC-MS neutral range, pH 7.8, ammonium hydrogencarbonate/acetonitrile, read-out: log P (neutral)
[8] = Phaedon cochleariae, foliar, 168 h, application rate 500 g/ha, read-out: efficacy (beetle larvae killed)

Structure (SMILES)	LOGP_HCOOH [1, 2]	efficacy (beetle larvae killed) (Phaedon cochleariae; application rate 500 g/ha)	efficacy (caterpillars killed) (Spodoptera frugiperda; application rate 500 g/ha)	LOGP_NEUTRAL [1, 3]	efficacy (beetle larvae killed) (Phaedon cochleariae; application rate 100 g/ha)	efficacy (caterpillars killed) (Spodoptera frugiperda; application rate 100 g/ha)	LOGP_HCOOH [1, 4]	LOGP_NEUTRAL [1, 5]	chromatographic logP [1, 6]	chromatographic logP [1, 7]	pest or weed control at 500 g/ha (Phaedon cochleariae; [8])	pest or weed control at 500 g/ha (Spodoptera frugiperda; application rate 500 g/ha)	pest or weed control at 100 g/ha (Phaedon cochleariae; Phaedon cochleariae, foliar, 168 h, application rate 100 g/ha, read-out: efficacy (beetle larvae killed))
N#Cc1ccc(CNC(=O)c2cc(-c3cc(F)c(C(F)(F)C(F)(F)F)c(F)c3F)cc(NC(=O)C3CC3)n2)cc1 [Example I-274]	4.28	100%	100%	–	–	–	–	–	–	–	–	–	–
N#Cc1ccc(NC(=O)c2cc(-c3ccc(Cl)cc3)cc(NC(=O)C3CC3)n2)cc1 [Example I-022]	4.34	100%	100%	4.29	83%	100%	–	–	–	–	–	–	–
O=C(NCc1ccc(C(F)(F)F)c(F)c1)c1cc(-c2ccc(C(F)(F)F)cc2)cc(NC(=O)C2CC2)n1 [Example I-064]	4.68	100%	100%	4.53	–	100%	–	–	–	–	–	–	–
Cn1ncc2cc(CNC(=O)c3cc(-c4ccc(OC(F)(F)F)cc4)cc(NC(=O)C4CC4)n3)cnc21 [Example I-114]	–	100%	100%	3.23	–	83%	3.33	–	–	–	–	–	–
Cc1cc(OC(F)(F)F)ccc1-c1cc(NC(=O)C2CC2)nc(C(=O)NCc2ccc(C#N)cc2)c1 [Example I-099]	4.03	100%	100%	3.95	100%	100%	–	–	–	–	–	–	–
N#Cc1ccc(CNC(=O)c2cc(-c3cccc(OC(F)(F)F)c3)cc(NC(=O)C3CC3)n2)cc1 [Example I-208]	–	100%	–	3.71	100%	100%	3.81	–	–	–	–	–	–
N#Cc1ccc(CNC(=N)c2cc(-c3ccc(OC(F)(F)F)cc3)cc(NC(=O)C3CC3)n2)cc1 [Example I-258, N-{6-[N-(4-Cyanobenzyl)carbamimidoyl]-4-[4-(trifluoromethoxy)phenyl]pyridin-2-yl}cyclopropanecarboxamide]	2.08	–	–	–	–	–	–	4.24	2.08	4.24	83%	83%	–
CC(=O)Nc1cc(-c2ccc(OC(F)(F)F)cc2)cc(C(=O)NCc2ccc(C#N)cc2)n1 [Example I-204]	–	100%	100%	3.27	100%	100%	–	–	–	–	–	–	–
CC1(C(=O)Nc2cc(-c3ccc(OC(F)(F)F)cc3)cc(C(=O)NCc3ccc(C#N)cc3)n2)CC1 [Example I-147]	–	100%	100%	–	100%	100%	4.33	–	–	–	–	–	–
C#CC1(NC(=O)c2cc(-c3ccc(OC(F)(F)F)cc3)cc(NC(=O)C3CC3)n2)CC1 [Example I-126]	–	100%	100%	–	–	83%	3.63	–	–	–	–	–	–
Cc1cc(-c2cc(NC(=O)C3CC3)nc(C(=O)NCc3ccc(C#N)cc3)c2)ccc1C(F)(F)C(F)(F)F [Example I-270]	4.45	100%	100%	–	–	–	–	–	–	–	–	–	–
O=C(N[C@H]1CC[C@@H](C(F)(F)F)CC1)c1cc(-c2ccc(OC(F)(F)F)cc2)cc(NC(=O)C2CC2)n1 [Example I-145]	–	100%	100%	4.72	100%	100%	4.90	–	–	–	–	–	–
N#CC1CCC(CNC(=O)c2cc(-c3ccc(OC(F)(F)F)cc3)cc(NC(=O)C3CC3)n2)CC1 (stereo not shown) [Example I-161]	–	100%	100%	3.74	83%	100%	3.87	–	–	–	–	–	–
CC(C)(C)C(=O)Nc1cc(-c2ccc(OC(F)(F)F)cc2)cc(C(=O)NCc2ccc(C#N)cc2)n1 [Example I-206]	–	100%	100%	4.45	–	100%	–	–	–	–	–	–	–
O=C(NCC(F)(F)F)c1cc(-c2ccc(C(F)(F)F)cc2)cc(NC(=O)C2CC2)n1 [Example I-009]	3.82	100%	100%	3.77	–	–	–	–	–	–	–	–	–
O=C(Cc1ccc(Br)cc1)Nc1cc(-c2ccc(OC(F)(F)F)cc2)cc(C(=O)NC2CC2)n1 [Example I-125]	–	100%	100%	4.20	–	100%	4.46	–	–	–	–	–	–
COC1(NC(=O)c2cc(-c3ccc(OC(F)(F)F)cc3)cc(NC(=O)C3CC3)n2)CC1 [Example I-140]	–	100%	100%	–	100%	100%	3.58	–	–	–	–	–	–
N#Cc1ccc(NC(=O)c2cc(-c3ccc(C(F)(F)F)cc3)cc(NC(=O)C3CC3)n2)cc1 [Example I-019]	4.40	100%	100%	4.33	–	–	–	–	–	–	–	–	–
CNC(=O)c1cc(-c2ccc(OC(F)(F)F)cc2)cc(NC(=O)C2CC2)n1 [Example I-127]	–	100%	100%	–	–	83%	3.02	–	–	–	–	–	–
CC(C)C(=O)Nc1cc(-c2ccc(C(F)(F)F)cc2)cc(C(=O)NC(C)c2ccc(C#N)cc2)n1 (stereo not shown) [Example I-087]	4.20	83%	100%	4.15	–	100%	–	–	–	–	–	–	–
N#Cc1ccc(CNC(=O)c2cc(-c3ccc(C(F)(F)F)cn3)cc(NC(=O)C3CC3)n2)cc1 [Example I-174, N-(4-Cyanobenzyl)-6′-[(cyclopropylcarbonyl)amino]-5-(trifluoromethyl)-2,4′-bipyridine-2′-carboxamide]	–	–	–	3.22	–	–	3.25	–	3.25	3.22	100%	100%	100%
O=C(NCc1ccncc1)c1cc(-c2ccc(C(F)(F)C(F)(F)F)c(F)c2)cc(NC(=O)C2CC2)n1 [Example I-277]	2.17	83%	100%	–	–	100%	–	3.33	–	–	–	–	–
N#Cc1ccc(CNC(=O)c2cc(-c3c(Cl)cc(C(F)(F)C(F)(F)F)cc3Cl)cc(NC(=O)C3CC3)n2)cc1 [Example I-265]	4.51	100%	100%	–	–	–	–	–	–	–	–	–	–
CCCNC(=O)c1cc(-c2ccc(OC(F)(F)F)cc2)cc(NC(=O)C2CC2)n1 [Example I-132]	–	100%	100%	–	–	100%	3.78	–	–	–	–	–	–
